Laboratory results taken from patent US10221177B2 (HYDRA BIOSCIENCES, INC., priority 2014, dated 2019).

molecular target: human TRPA1 (Homo sapiens (Human), UniProt O75762); assay: In vitro inhibition of human TRPA1, whole cell patch configuration; format: cell-based; conditions: current activation 10 μM AITC, tested concentrations 320 pM to 3.2 μM, read-out: hTRPA1 IC50
Method in brief: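 Whole-cell patch clamp, bath 150 mM NaCl, 10 mM HEPES, 1 mM EGTA, 3 mM MgCl2, pH 7.4 (sometimes 2 mM CaCl2, 1 mM MgCl2). Currents recorded continuously at −60 mV or by 400 ms ramps from −40 mV holding every 4 s; inward/outward currents taken at −80/80 mV, with controlled-temperature focal perfusion.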

human TRPA1, sequence (O75762 whole entry, the tested form may be a part): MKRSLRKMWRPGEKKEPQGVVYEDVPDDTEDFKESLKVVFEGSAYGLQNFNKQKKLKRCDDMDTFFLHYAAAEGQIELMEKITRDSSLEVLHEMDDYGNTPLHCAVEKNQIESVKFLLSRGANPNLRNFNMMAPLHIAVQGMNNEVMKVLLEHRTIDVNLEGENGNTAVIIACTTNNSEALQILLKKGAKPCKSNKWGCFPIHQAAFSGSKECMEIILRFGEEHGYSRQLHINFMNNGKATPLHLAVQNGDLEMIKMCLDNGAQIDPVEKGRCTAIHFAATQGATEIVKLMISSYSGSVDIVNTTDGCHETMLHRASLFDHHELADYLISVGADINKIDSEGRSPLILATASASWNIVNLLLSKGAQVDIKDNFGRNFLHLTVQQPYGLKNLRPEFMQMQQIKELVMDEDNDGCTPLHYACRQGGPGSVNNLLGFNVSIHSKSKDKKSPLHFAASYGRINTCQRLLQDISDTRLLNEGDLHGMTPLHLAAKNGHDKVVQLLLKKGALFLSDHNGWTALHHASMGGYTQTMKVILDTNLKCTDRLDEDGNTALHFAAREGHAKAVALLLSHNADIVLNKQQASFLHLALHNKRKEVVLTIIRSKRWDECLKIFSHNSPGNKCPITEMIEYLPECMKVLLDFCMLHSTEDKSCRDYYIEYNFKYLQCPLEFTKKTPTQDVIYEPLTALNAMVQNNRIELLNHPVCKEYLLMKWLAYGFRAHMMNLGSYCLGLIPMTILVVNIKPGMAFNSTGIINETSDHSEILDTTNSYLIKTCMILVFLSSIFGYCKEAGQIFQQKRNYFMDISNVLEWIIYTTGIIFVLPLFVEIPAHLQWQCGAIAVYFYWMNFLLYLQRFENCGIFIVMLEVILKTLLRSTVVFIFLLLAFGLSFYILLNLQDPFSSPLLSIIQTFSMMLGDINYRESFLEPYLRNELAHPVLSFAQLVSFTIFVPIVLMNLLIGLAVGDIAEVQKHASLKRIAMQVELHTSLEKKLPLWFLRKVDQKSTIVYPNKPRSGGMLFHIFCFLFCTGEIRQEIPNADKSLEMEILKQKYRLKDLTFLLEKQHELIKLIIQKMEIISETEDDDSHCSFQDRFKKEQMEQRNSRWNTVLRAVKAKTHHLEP

IC50 [nM]	SMILES
309	Cc1cc(Cn2c(=O)c3c(ncn3CC(=O)Nc3ccc(C#N)c(C(F)(F)F)n3)n(C)c2=O)no1 [Compound 201, N-(5-cyano-6-(trifluoromethyl)pyridin-2-yl)-2-(3-methyl-1-((5-methylisoxazol-3-yl)methyl)-2,6-dioxo-2,3-dihydro-1H-purin-7(6H)-yl)acetamide]
26	Cc1cc(Cn2c(=O)c3c(ncn3CC(=O)Nc3cccc(N4CCC(C(F)(F)F)CC4)n3)n(C)c2=O)no1 [Compound 202, 2-(3-methyl-1-((5-methylisoxazol-3-yl)methyl)-2,6-dioxo-2,3-dihydro-1H-purin-7(6H)-yl)-N-(6-(4-(trifluoromethyl)piperidin-1-yl)pyridin-2-yl)acetamide]
1610	CCc1cc(NC(=O)Cn2cnc3c2c(=O)n(Cc2cc(C)on2)c(=O)n3C)nc(C(F)(F)F)c1 [Compound 203, N-(4-ethyl-6-(trifluoromethyl)pyridin-2-yl)-2-(3-methyl-1-((5-methylisoxazol-3-yl)methyl)-2,6-dioxo-2,3-dihydro-1H-purin-7(6H)-yl)acetamide]
3250	COc1cc(NC(=O)Cn2cnc3c2c(=O)n(Cc2cc(C)on2)c(=O)n3C)nc(C(F)(F)F)c1 [Compound 204, N-(4-methoxy-6-(trifluoromethyl)pyridin-2-yl)-2-(3-methyl-1-((5-methylisoxazol-3-yl)methyl)-2,6-dioxo-2,3-dihydro-1H-purin-7(6H)-yl)acetamide]
> 1000	CCN(c1ccc(NC(=O)Cn2cnc3c2c(=O)n(Cc2cc(C)on2)c(=O)n3C)cc1)C(F)(F)F [Compound 211, N-(4-(ethyl(trifluoromethyl)amino)phenyl)-2-(3-methyl-1-((5-methylisoxazol-3-yl)methyl)-2,6-dioxo-2,3-dihydro-1H-purin-7(6H)-yl)acetamide]
62	Cc1cc(Cn2c(=O)c3c(ncn3CC(=O)Nc3cccc(N4CC5CC5C4)n3)n(C)c2=O)no1 (centres unmarked) [Compound 212, N-(6-(3-azabicyclo[3.1.0]hexan-3-yl)pyridin-2-yl)-2-(3-methyl-1-((5-methylisoxazol-3-yl)methyl)-2,6-dioxo-2,3-dihydro-1H-purin-7(6H)-yl)acetamide]
141	Cc1cc(Cn2c(=O)c3c(ncn3CC(=O)Nc3cccc(N4CC5C(C4)C5(F)F)n3)n(C)c2=O)no1 (centres unmarked) [Compound 213, N-(6-(6,6-difluoro-3-azabicyclo[3.1.0]hexan-3-yl)pyridin-2-yl)-2-(3-methyl-1-((5-methylisoxazol-3-yl)methyl)-2,6-dioxo-2,3-dihydro-1H-purin-7(6H)-yl)acetamide]
92	Cc1cc(Cn2c(=O)c3c(ncn3CC(=O)Nc3cccc(N4CCN(CC(F)(F)F)CC4)n3)n(C)c2=O)no1 [Compound 214, 2-(3-methyl-1-((5-methylisoxazol-3-yl)methyl)-2,6-dioxo-2,3-dihydro-1H-purin-7(6H)-yl)-N-(6-(4-(2,2,2-trifluoroethyl)piperazin-1-yl)pyridin-2-yl)acetamide]
25	Cc1cc(Cn2c(=O)c3c(ncn3CC(=O)Nc3cccc(-c4ccc(C(F)(F)F)nc4)n3)n(C)c2=O)no1 [Compound 215, 2-(3-methyl-1-((5-methylisoxazol-3-yl)methyl)-2,6-dioxo-2,3-dihydro-1H-purin-7(6H)-yl)-N-(6′-(trifluoromethyl)-2,3′-bipyridin-6-yl)acetamide]
16	CC(=O)Cn1c(=O)c2c(ncn2CC(=O)Nc2csc(-c3cnc(C(F)(F)F)c(C)c3)n2)n(C)c1=O [Compound 216, 2-(3-methyl-2,6-dioxo-1-(2-oxopropyl)-2,3-dihydro-1H-purin-7(6H)-yl)-N-(2-(5-methyl-6-(trifluoromethyl)pyridin-3-yl)thiazol-4-yl)acetamide]
3	Cc1cc(Cn2c(=O)c3c(ncn3CC(=O)Nc3csc(-c4cnc(C(F)(F)F)c(C)c4)n3)n(C)c2=O)no1 [Compound 217, 2-(3-methyl-1-((5-methylisoxazol-3-yl)methyl)-2,6-dioxo-2,3-dihydro-1H-purin-7(6H)-yl)-N-(2-(5-methyl-6-(trifluoromethyl)pyridin-3-yl)thiazol-4-yl)acetamide]
23	Cc1cc(Cn2c(=O)c3c(ncn3CC(=O)Nc3cccc(N4CCC(C(C)(C)F)CC4)n3)n(C)c2=O)no1 [Compound 219, N-(6-(4-(2-fluoropropan-2-yl)piperidin-1-yl)pyridin-2-yl)-2-(3-methyl-1-((5-methylisoxazol-3-yl)methyl)-2,6-dioxo-2,3-dihydro-1H-purin-7(6H)-yl)acetamide]
72	Cc1cc(Cn2c(=O)c3c(ncn3CC(=O)Nc3ccc(N4CCC(C(C)(C)F)CC4)cn3)n(C)c2=O)no1 [Compound 220, N-(5-(4-(2-fluoropropan-2-yl)piperidin-1-yl)pyridin-2-yl)-2-(3-methyl-1-((5-methylisoxazol-3-yl)methyl)-2,6-dioxo-2,3-dihydro-1H-purin-7(6H)-yl)acetamide]
5	Cc1cc(Cn2c(=O)c3c(ncn3CC(=O)Nc3cccc(-c4cnc(C(F)(F)F)c(C)c4)n3)n(C)c2=O)no1 [Compound 221, 2-(3-methyl-1-((5-methylisoxazol-3-yl)methyl)-2,6-dioxo-2,3-dihydro-1H-purin-7(6H)-yl)-N-(5′-methyl-6′-(trifluoromethyl)-[2,3′-bipyridin]-6-yl)acetamide]
5	Cc1noc(Cn2c(=O)c3c(ncn3CC(=O)Nc3cccc(-c4cnc(C(F)(F)F)c(C)c4)n3)n(C)c2=O)n1 [Compound 222, 2-(3-methyl-1-((3-methyl-1,2,4-oxadiazol-5-yl)methyl)-2,6-dioxo-2,3-dihydro-1H-purin-7(6H)-yl)-N-(5′-methyl-6′-(trifluoromethyl)-[2,3′-bipyridin]-6-yl)acetamide]
25	Cc1nc(Cn2c(=O)c3c(ncn3CC(=O)Nc3cccc(-c4cnc(C(F)(F)F)c(C)c4)n3)n(C)c2=O)no1 [Compound 223, 2-(3-methyl-1-((5-methyl-1,2,4-oxadiazol-3-yl)methyl)-2,6-dioxo-2,3-dihydro-1H-purin-7(6H)-yl)-N-(5′-methyl-6′-(trifluoromethyl)-[2,3′-bipyridin]-6-yl)acetamide]
19	Cc1cc(-c2cccc(NC(=O)Cn3cnc4c3c(=O)n(Cc3ccon3)c(=O)n4C)n2)cnc1C(F)(F)F [Compound 224, 2-(1-(isoxazol-3-ylmethyl)-3-methyl-2,6-dioxo-2,3-dihydro-1H-purin-7(6H)-yl)-N-(5′-methyl-6′-(trifluoromethyl)-[2,3′-bipyridin]-6-yl)acetamide]
49	Cc1cc(Cn2c(=O)c3c(ncn3CC(=O)Nc3cccc(-c4cnc(C(F)(F)F)c(C)c4)n3)n(C)c2=O)on1 [Compound 225, 2-(3-methyl-1-((3-methylisoxazol-5-yl)methyl)-2,6-dioxo-2,3-dihydro-1H-purin-7(6H)-yl)-N-(5′-methyl-6′-(trifluoromethyl)-[2,3′-bipyridin]-6-yl)acetamide]
8	CCC(=O)Cn1c(=O)c2c(ncn2CC(=O)Nc2cccc(-c3cnc(C(F)(F)F)c(C)c3)n2)n(C)c1=O [Compound 226, 2-(3-methyl-2,6-dioxo-1-(2-oxobutyl)-2,3-dihydro-1H-purin-7(6H)-yl)-N-(5′-methyl-6′-(trifluoromethyl)-[2,3′-bipyridin]-6-yl)acetamide]
22	CC(=O)Cn1c(=O)c2c(ncn2CC(=O)Nc2cccc(-c3cnc(C(F)(F)F)c(C)c3)n2)n(C)c1=O [Compound 227, 2-(3-methyl-2,6-dioxo-1-(2-oxopropyl)-2,3-dihydro-1H-purin-7(6H)-yl)-N-(5′-methyl-6′-(trifluoromethyl)-[2,3′-bipyridin]-6-yl)acetamide]
17	Cc1cc(Cn2c(=O)c3c(ncn3CC(=O)Nc3cccc(-c4cnc(C)c(F)c4)n3)n(C)c2=O)no1 [Compound 228, N-(5′-fluoro-6′-methyl-[2,3′-bipyridin]-6-yl)-2-(3-methyl-1-((5-methylisoxazol-3-yl)methyl)-2,6-dioxo-2,3-dihydro-1H-purin-7(6H)-yl)acetamide]
9	Cc1cc(Cn2c(=O)c3c(ncn3CC(=O)Nc3cncc(-c4cnc(C(F)(F)F)c(C)c4)n3)n(C)c2=O)no1 [Compound 229, 2-(3-methyl-1-((5-methylisoxazol-3-yl)methyl)-2,6-dioxo-2,3-dihydro-1H-purin-7(6H)-yl)-N-(6-(5-methyl-6-(trifluoromethyl)pyridin-3-yl)pyrazin-2-yl)acetamide]
14	Cc1noc(Cn2c(=O)c3c(ncn3CC(=O)Nc3cncc(-c4cnc(C(F)(F)F)c(C)c4)n3)n(C)c2=O)n1 [Compound 230, 2-(3-methyl-1-((3-methyl-1,2,4-oxadiazol-5-yl)methyl)-2,6-dioxo-2,3-dihydro-1H-purin-7(6H)-yl)-N-(6-(5-methyl-6-(trifluoromethyl)pyridin-3-yl)pyrazin-2-yl)acetamide]
16	Cc1noc(Cn2c(=O)c3c(ncn3CC(=O)Nc3cccc(-c4cnc(C)c(F)c4)n3)n(C)c2=O)n1 [Compound 231, N-(5′-fluoro-6′-methyl-[2,3′-bipyridin]-6-yl)-2-(3-methyl-1-((3-methyl-1,2,4-oxadiazol-5-yl)methyl)-2,6-dioxo-2,3-dihydro-1H-purin-7(6H)-yl)acetamide]
56	CC(=O)Cn1c(=O)c2c(ncn2CC(=O)Nc2cncc(-c3cnc(C(F)(F)F)c(C)c3)n2)n(C)c1=O [Compound 232, 2-(3-methyl-2,6-dioxo-1-(2-oxopropyl)-2,3-dihydro-1H-purin-7(6H)-yl)-N-(6-(5-methyl-6-(trifluoromethyl)pyridin-3-yl)pyrazin-2-yl)acetamide]
10	CCC(=O)Cn1c(=O)c2c(ncn2CC(=O)Nc2cncc(-c3cnc(C(F)(F)F)c(C)c3)n2)n(C)c1=O [Compound 233, 2-(3-methyl-2,6-dioxo-1-(2-oxobutyl)-2,3-dihydro-1H-purin-7(6H)-yl)-N-(6-(5-methyl-6-(trifluoromethyl)pyridin-3-yl)pyrazin-2-yl)acetamide]
